{"source": "patent US20190358181A1", "about": "“METHODS FOR AUTISM SPECTRUM DISORDER PHARMACOTHERAPY” (priority 2017, published 2019)", "key": {"[1]": {"test_system": "males with ASD", "test": "Aberrant Behavior Checklist (ABC), parent questionnaire, SAT-1 trial", "assay_type": "in vivo, human", "settings": "ABC Stereotypy", "description": "Two observational examinations were performed by a clinician at 3 time points: baseline (56±8 days; mean±SEM; before the infusion), 2-days post-infusion, and 6-weeks post-infusion. The two examiner-based metrics were the Autism Diagnostic Observation Schedule, 2nd edition (ADOS-2) with video and audio files recorded on 3 cameras, and the Expressive One Word Picture Vocabulary Testing (EOWPVT). Both of these observational metrics were administered by a trained and certified examiner using approved test materials. Three standardized questionnaires were completed by parents at 3 time points: baseline, 7-days post-infusion, and 6-weeks post-infusion. The three standardized questionnaires completed by parents were the 58-question Aberrant Behavior Checklist (ABC), the 75-item Autism Treatment Evaluation Checklist (ATEC), and the 33-item repetitive behavior questionnaire (RBQ). Parents were asked to complete these three instruments with reference to how their child behaved in the previous 7 days. At the end of the six weeks, we included a 24-question Clinical Global Impression (CGI) questionnaire (FIG. 16). In addition, parents were asked to list the 3 top behaviors or symptoms that they observed to be most changed over the previous 6-weeks. To minimize the misinterpretation of natural day-to-day variations in symptoms, parents were asked to mark a symptom as changed in the 6-week CGI only if it had lasted for at least 1 week. […]\nBehavioral and neurological effects of treatment were assessed primarily by the examiner-based ADOS-2 protocol scores and standardized vocabulary testing (Expressive One Word Picture Vocabulary Test, EOWPVT), with secondary evaluation via parent-based assessments (Aberrant Behavior Checklist (ABC) scores, Autism Treatment Evaluation Checklist (ATEC) scores, Clinical Global Impression of Improvement (CGI) scores, and Repetitive Behavior Questionnaire (RBQ) scores). […] Examiner-based outcomes (ADOS and EOWPVT) were assessed at 2-days and 6-weeks after the infusion. Parent-based outcomes (ABC, ATEC, CGI, and RBQ) were assessed at 7-days and 6-weeks after the infusion. […]\nEach child was used as their own control to examine before and after treatment effects from Example 1 in a paired t-test design for the analysis of the ADOS, EOWPVT, ABC, ATEC, RBQ (FIGS. 4-11 show individual analyses), and blood and urine safety data (FIGS. 2 and 3 show individual analyses). […] Categorical data, such as the presence or absence of adverse events or historical symptoms was analyzed by Fisher's exact test. […] Cohen's d—calculated as the mean difference of the paired, within-subject scores before and after treatment, divided by the standard deviation of the differences—was used as an estimate of effect size."}, "[2]": {"test": "Toxicity and safety monitoring, adverse events graded by CTCAE v4.03, SAT-1 trial", "assay_type": "in vivo, human", "description": "Immediately before the infusion, height and weight were recorded, vital signs and capillary oxygen saturation (pulse oximetry) measured, physical and neurological examinations were conducted, and urine and blood for safety monitoring, pharmacology, and metabolomics was collected.\nFor the test dose, 50 mg of suramin hexasodium (Bayer Pharmaceuticals, Inc.) in 5 mL of saline (experimental arm, 5 patients), or 5 mL of saline only (control arm, 5 patients) were given by slow intravenous (IV) push over 3 minutes, followed by a 10 mL flush of saline. One hour after the test dose, vital signs were repeated and a single infusion of either suramin (20 mg/kg, minus the 50 mg test dose, in 50 mL, up to a maximum of 1 gram) or saline (50 mL IV) was given over 30 minutes, followed by a 10 mL flush of saline.\nSuramin pharmacokinetics was assessed by serum isolation at the 4 time points immediately before and after the infusion. […] Unexpected and adverse events were recorded as they occurred and graded in severity according to the National Cancer Institute Common Terminology Criteria for Adverse Events v4.03 (CTCAE) scale. Additional pharmacovigilence monitoring included daily scripted phone calls in the first week, then 4 weekly calls until the exit examinations at 6 weeks.\nPaired, non-parametric analysis was by Wilcoxon signed-rank sum test. Categorical data, such as the presence or absence of adverse events or historical symptoms was analyzed by Fisher's exact test. Two-way ANOVA (treatment×time), with Sidak post hoc correction, was used to analyze the 6-week summaries captured by the ADOS, CGI, and additional blood and urine safety analysis. Cohen's d—calculated as the mean difference of the paired, within-subject scores before and after treatment, divided by the standard deviation of the differences—was used as an estimate of effect size."}}, "data": [{"smiles": "Cc1ccc(C(=O)Nc2ccc(S(=O)(=O)O)c3cc(S(=O)(=O)O)cc(S(=O)(=O)O)c23)cc1NC(=O)c1cccc(NC(=O)Nc2cccc(C(=O)Nc3cc(C(=O)Nc4ccc(S(=O)(=O)O)c5cc(S(=O)(=O)O)cc(S(=O)(=O)O)c45)ccc3C)c2)c1", "note": "[Suramin, suramin]", "values": [{"measurement": "Difference from baseline (mean ± sd)", "setting": "[1]; 7 days after treatment", "result": "−3.6 ± 2.1"}, {"measurement": "d (Cohen's d)", "setting": "[1]; 7 days after treatment", "result": 1.7}, {"measurement": "Difference from baseline (mean ± sd)", "setting": "[1]; 45 days after treatment", "result": "−4.0 ± 2.3"}, {"measurement": "d (Cohen's d)", "setting": "[1]; 45 days after treatment", "result": 1.7}, {"measurement": "Adverse or Unanticipated Events, Suramin (N = 5)", "setting": "[2]; Asymptomatic rash", "result": 5}, {"measurement": "CTCAE Grade", "setting": "[2]; Asymptomatic rash", "result": 1}, {"measurement": "Adverse or Unanticipated Events, Suramin (N = 5)", "setting": "[2]; Emesis x 1", "result": "1^4"}, {"measurement": "CTCAE Grade", "setting": "[2]; Emesis x 1", "result": 1}, {"measurement": "Adverse or Unanticipated Events, Suramin (N = 5)", "setting": "[2]; Enuresis", "result": "1^9"}, {"measurement": "CTCAE Grade", "setting": "[2]; Enuresis", "result": 1}, {"measurement": "Adverse or Unanticipated Events, Suramin (N = 5)", "setting": "[2]; Headache", "result": 1}, {"measurement": "CTCAE Grade", "setting": "[2]; Headache", "result": 1}, {"measurement": "Adverse or Unanticipated Events, Suramin (N = 5)", "setting": "[2]; Hyperactivity", "result": "2^6"}, {"measurement": "CTCAE Grade", "setting": "[2]; Hyperactivity", "result": 1}, {"measurement": "Adverse or Unanticipated Events, Suramin (N = 5)", "setting": "[2]; Hypoglycemia", "result": 1}, {"measurement": "CTCAE Grade", "setting": "[2]; Hypoglycemia", "result": 2}, {"measurement": "Adverse or Unanticipated Events, Suramin (N = 5)", "setting": "[2]; Leukocytosis", "result": 0}, {"measurement": "Adverse or Unanticipated Events, Suramin (N = 5)", "setting": "[2]; Peripheral neuropathy", "result": 0}, {"measurement": "Adverse or Unanticipated Events, Suramin (N = 5)", "setting": "[2]; Total", "result": 13}, {"measurement": "Adverse or Unanticipated Events, Suramin (N = 5)", "setting": "[2]; Total, excluding rash", "result": 8}, {"measurement": "Adverse or Unanticipated Events, Suramin (N = 5)", "setting": "[2]; Uncomplicated URI", "result": 2}, {"measurement": "CTCAE Grade", "setting": "[2]; Uncomplicated URI", "result": 1}, {"measurement": "serious toxicities (CTCAE grades 3-5)", "setting": "[2]; extensive monitoring, single 20 mg/kg IV", "result": "no serious toxicities"}, {"measurement": "extent of morbilliform rash", "setting": "[2]; five children who received suramin", "result": "1%-20%"}, {"measurement": "time of rash peak after the infusion", "setting": "[2]; in vivo", "result": 1, "unit": "days"}, {"measurement": "time to spontaneous disappearance of rash", "setting": "[2]; in vivo", "result": "2 to 4", "unit": "days"}, {"measurement": "free cortisol, hemoglobin, white blood cell count (WBC), platelets, liver transaminases, creatinine, and urine protein", "setting": "[2]; suramin vs placebo (FIGS. 2 and 3)", "result": "showed no differences"}]}]}
